“And” between values parts separate entries of the source, which are not always exact repeats. Equal values may be shown once. Read-outs that look alike come from different tables or passages of the source.
What was measured:
[1] = for Reported half-life: individual values, sampling to 168 h, LLOQ 0.2 ng/mL
Procedure: (§1) A 2-part study was conducted in subjects with solid tumors (“Study 2”). […] The dose levels increased to 75 mg/m^2, 150 mg/m^2, 225 mg/m^2, 300 mg/m^2, 375 mg/m^2, and 400 mg/m^2. In the second part of this study, half of the group starting at a selected dose from stage 1, was given over two consecutive days every three weeks. A total of 15 (n=40) subjects enrolled in this study.
(§2) All subject PK data within the dataset were analyzed using Phoenix 8.0. […] Individual time points for the terminal slope were automatically selected by the software, and linear up—log down interpolation calculation method was used for the analysis. Individual BLQ samples were set to 0.00 ng/ml for noncompartmental analysis unless the PK sample occurred between two PK samples above the limit of quantification, in which case the PK sample was set to missing. For the calculation of summary statistics and mean concentration figures, all BLQ samples were set to 0.00 ng/ml.

[2] = Two phase 1 studies of docetaxel capsules administered orally in combination with HM30181A; format: in vivo, human
[3] = clinical; settings: human, po
Procedure: as §1, §2

[4] = oral 35 mg/m^2 with Compound A, Mean, N=4
[5] = oral 35 mg/m^2 with Compound A, individual subjects
[6] = oral 75 mg/m^2 with Compound A, Mean, N=3
[7] = oral 75 mg/m^2 with Compound A, individual subjects
[8] = oral 75 mg/m^2 with Compound A, individual subjects, listed as Docetaxel
[9] = oral 150 mg/m^2 with Compound A, individual subjects
[10] = oral 225 mg/m^2 with Compound A, Mean, N=3
[11] = oral 225 mg/m^2 with Compound A, individual subjects
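Wherever Average Time above Target (0 to last time point measured above 4 ng/ml) is given: noncompartmental pharmacokinetic analysis in subjects with solid tumors, using linear-up log-down interpolation, with terminal slope time points picked automatically by the software.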
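Wherever Dose Normalized AUC is given: noncompartmental pharmacokinetic analysis in subjects with solid tumors, using linear-up log-down interpolation, with terminal slope time points picked automatically by the software.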
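Wherever Reported half-life is given: noncompartmental pharmacokinetic analysis in subjects with solid tumors, using linear-up log-down interpolation, with terminal slope time points picked automatically by the software.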
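Wherever docetaxel plasma concentration vs in vitro target IC50 of 5 nM (4 ng/mL) is given: noncompartmental pharmacokinetic analysis in subjects with solid tumors, using linear-up log-down interpolation, with terminal slope time points picked automatically by the software.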

CC(=O)O[C@@]12CO[C@@H]1C[C@H](O)[C@@]1(C)C(=O)[C@H](O)C3=C(C)[C@@H](OC(=O)[C@H](O)[C@@H](NC(=O)OC(C)(C)C)c4ccccc4)C[C@@](O)([C@@H](OC(=O)c4ccccc4)[C@H]21)C3(C)C [docetaxel, (2aR,4S,4aS,6R,9S,11S,12S,12aR,12b S)-12b-acetoxy-9-(((2R,3S)-3-((tert-butoxycarbonyl)amino)-2-hydroxy-3-phenylpropanoyl)oxy)-4,6,11-trihydroxy-4a,8,13,13-tetramethyl-5-oxo-2a,3,4,4a,5,6,9,10,11,12,12a, 12b-dodecahydro-1H-7,11-methanocyclodeca[3,4]benzo[1,2-b]oxet-12-yl benzoate]
docetaxel plasma concentration vs in vitro target IC50 of 5 nM (4 ng/mL) ([1]; individuals administered 35 or 75 mg/m^2 oral docetaxel): > 4 ng/mL
Reported half-life ([1]; oral 35 mg/m^2): 35 mg/m^2: 3.4 h, and 19.1 h and 65.3 h
Average Time above Target (0 to last time point measured above 4 ng/ml) ([1]; oral 35 mg/m^2 SD): 7.5 h
Dose Normalized AUC ([1]; oral 35 mg/m^2 with Compound A): 39.97
AUC % Extrapobs [1, 4]: 7.51%
Tmax [1, 4]: 1.50 h
AUC0-12 [1, 5]: 145 ng·h/mL and 39.8 ng·h/mL and 198 ng·h/mL and 353 ng·h/mL
AUC0-24 [1, 5]: 178 ng·h/mL and 46.1 ng·h/mL and 227 ng·h/mL and 392 ng·h/mL
AUC0-48 [1, 5]: 218 ng·h/mL and 46.1 ng·h/mL and 257 ng·h/mL and 440 ng·h/mL
AUC % Extrapobs [1, 5]: 7.76% and 11.4% and 3.39% and 7.45%
AUCINF—obs [1, 5]: 259 ng·h/mL and 44.9 ng·h/mL and 279 ng·h/mL and 599 ng·h/mL
Cmax [1, 5]: 38.0 ng/mL and 73.0 ng/mL and 157 ng/mL and 8.59 ng/mL
Tmax [1, 5]: 2.00 h and 1.00 h
t1/2 [1, 5]: 22.8 h and 3.40 h and 19.1 h and 65.3 h
AUC0-24 ([1]; oral 35 mg/m^2 with Compound A, individual subjects by cancer diagnosis): 170 to 392 ng·h/mL
AUC0-24 ([1]; oral 35 mg/m^2 with Compound A, individual subjects by cancer diagnosis, listed as Docetaxel): 170 ng·h/mL and 227 ng·h/mL and 392 ng·h/mL
Reported half-life ([1]; oral 75 mg/m^2): 62.4 h and 45.8 h
Average Time above Target (0 to last time point measured above 4 ng/ml) ([1]; oral 75 mg/m^2 SD): 21.5 h
Dose Normalized AUC ([1]; oral 75 mg/m^2 with Compound A): 38.23
AUC0-12 [1, 6]: 512 ng·h/mL
AUC0-24 [1, 6]: 598 ng·h/mL
AUC % Extrapobs [1, 6]: 3.89%
Tmax [1, 6]: 2.00 h
Cmax [1, 7]: 81.6 to 190 ng/mL
Tmax [1, 7]: 2.00 h
AUC0-24 ([1]; oral 75 mg/m^2 with Compound A, individual subjects by cancer diagnosis): 304 to 1030 ng·h/mL
AUC0-24 ([1]; oral 75 mg/m^2 with Compound A, individual subjects by cancer diagnosis, listed as Docetaxel): 461 ng·h/mL and 304 ng·h/mL and 1030 ng·h/mL
AUC0-12 [1, 8]: 390 ng·h/mL and 270 ng·h/mL and 875 ng·h/mL
AUC0-24 [1, 8]: 461 ng·h/mL and 304 ng·h/mL and 1030 ng·h/mL
AUC0-48 [1, 8]: 543 ng·h/mL and 334 ng·h/mL and 1150 ng·h/mL
AUC % Extrapobs [1, 8]: 4.31% and 4.87% and 2.50%
AUCINF—obs [1, 8]: 690 ng·h/mL and 409 ng·h/mL and 1350 ng·h/mL
Cmax [1, 8]: 165 ng/mL and 81.6 ng/mL and 190 ng/mL and 270 ng/mL
t1/2 [1, 8]: 62.1 h and 45.8 h
Reported half-life ([1]; oral 150 mg/m^2): 53.3 h and 63.3 h
Average Time above Target (0 to last time point measured above 4 ng/ml) ([1]; oral 150 mg/m^2 SD): 15.5 h
Dose Normalized AUC ([1]; oral 150 mg/m^2 with Compound A): 26.70
AUC0-12 [1, 9]: 898 ng·h/mL and 650 ng·h/mL
AUC0-24 [1, 9]: 1050 ng·h/mL and 720 ng·h/mL and 490 ng·h/mL
AUC0-48 [1, 9]: 1150 ng·h/mL and 775 ng·h/mL and 538 ng·h/mL
AUC % Extrapobs [1, 9]: 5.59% and 2.53% and 5.32%
AUCINF—obs [1, 9]: 1380 ng·h/mL and 876 ng·h/mL and 673 ng·h/mL
Cmax [1, 9]: 136 ng/mL and 112 ng/mL
Tmax [1, 9]: 2.00 h and 4.00 h
t1/2 [1, 9]: 63.3 h
AUC0-24 ([1]; oral 150 mg/m^2 with Compound A, individual subjects by cancer diagnosis): 490 to 1050 ng·h/mL
AUC0-24 ([1]; oral 150 mg/m^2 with Compound A, individual subjects by cancer diagnosis, listed as Docetaxel): 1050 ng·h/mL and 720 ng·h/mL and 490 ng·h/mL
AUC0-12 [1, 10]: 618 ng·h/mL
AUC % Extrapobs [1, 10]: 4.93%
Cmax [1, 10]: 114 ng/mL
Tmax [1, 10]: 1.00 h
AUC0-12 [1, 11]: 835 ng·h/mL and 380 ng·h/mL and 637 ng·h/mL
AUC0-24 [1, 11]: 416 ng·h/mL and 974 ng·h/mL
AUC0-48 [1, 11]: 1100 ng·h/mL and 443 ng·h/mL and 1200 ng·h/mL
AUC % Extrapobs [1, 11]: 6.48% and 3.06% and 5.26%
AUCINF—obs [1, 11]: 1390 ng·h/mL and 517 ng·h/mL and 1650 ng·h/mL
Cmax [1, 11]: 139 ng/mL and 84.7 ng/mL
Tmax [1, 11]: 2.00 h
t1/2 [1, 11]: 46.1 h
AUC ([2]; human, plasma, iv, 75 mg/m2, IV 75 mg/m^2): 2420 ng·h/mL
AUC ([2]; human, plasma, po, oral 35 mg/m^2 with HM30181A 15 mg): 248 ng·h/mL
AUC ([2]; human, plasma, po, oral 75 mg/m^2 with HM30181A 15 mg): 692 ng·h/mL
AUC ([2]; human, plasma, po, oral 150 mg/m^2 with HM30181A 15 mg): 888 ng·h/mL
AUC ([2]; human, plasma, po, oral 225 mg/m^2 with HM30181A 15 mg): 1400 ng·h/mL
bioavailability ([2]; human, plasma, oral 75 mg/m^2 with HM30181A 15 mg, read-out: Individual F %): 20 to 31%
Tmax ([2]; human, plasma, oral capsules in combination with HM30181A): 3 to 4 h
half-life ([2]; human, plasma, oral capsules in combination with HM30181A, read-out: terminal phase half-life (converted)): ~2.33 days
Cmax as % of that observed after IV administration ([2]; oral with HM30181A vs IV): 9.5-13%
AUC(0-inf) ([3]; in vivo, 35 mg/m2): 308 ng·h/mL
half-life ([3]; in vivo, 150 mg/m2): 3190 min
Cmax ([3]; in vivo, 150 mg/m2, Cmax, oral 150 mg/m^2 with Compound A, individual subjects): 125 ng/mL
half-life ([3]; in vivo, 225 mg/m2): 3260 min
Cmax ([3]; in vivo, 225 mg/m2, Cmax, oral 225 mg/m^2 with Compound A, individual subjects): 118 ng/mL
AUC(0-t) ([3]; plasma, 35 mg/m2, AUC0-12, oral 35 mg/m^2 with Compound A, Mean, N=4): 184 ng·h/mL
AUC(0-t) ([3]; plasma, 35 mg/m2, AUC0-24, oral 35 mg/m^2 with Compound A, Mean, N=4): 211 ng·h/mL
AUC(0-t) ([3]; plasma, 35 mg/m2, AUC0-48, oral 35 mg/m^2 with Compound A, Mean, N=4): 240 ng·h/mL
AUC(0-inf) ([3]; plasma, 35 mg/m2, AUCINF—obs, oral 35 mg/m^2 with Compound A, Mean, N=4): 296 ng·h/mL
Cmax ([3]; plasma, 35 mg/m2, Cmax, oral 35 mg/m^2 with Compound A, Mean, N=4): 69.1 ng/mL
Cmax ([3]; plasma, 35 mg/m2, Cmax, oral 35 mg/m^2 with Compound A, individual subjects): 38 to 157 ng/mL
half-life ([3]; plasma, 35 mg/m2, t1/2, oral 35 mg/m^2 with Compound A, Mean, N=4): 1660 min
half-life ([3]; plasma, 35 mg/m2, t1/2, oral 35 mg/m^2 with Compound A, mean): 1750 min
concentration at 24 hr ([3]; plasma, 35 mg/m^2, Analyte Concentration, oral 35 mg/m^2, cohort 1, time 24.0 hr, individual subjects): 1.25 ng/mL
AUC(0-t) ([3]; plasma, 75 mg/m2, AUC0-48, oral 75 mg/m^2 with Compound A, Mean, N=3): 675 ng·h/mL

Source: US10849893B2 (Athenex HK Innovative Limited, priority 2018, dated 2020)
